In US20240424113A1, “CONJUGATES COMPRISING ANTIFUNGALS AND HEAT SHOCK PROTEIN 90 (HSP90) INHIBITORS AND METHODS OF USE THEREOF” (Bright Angel Therapeutics Inc., priority 2021, published 2024) one finds Kd and MIC50 data, which are given here for 15 compounds.

Each structure is given as a SMILES string. Converted amounts (≈) assume the structure as drawn.

The target in assay [1] is Hsp90 Nuclear Binding Domain (NBD) (Candida albicans (strain SC5314 / ATCC MYA-2876) (Yeast), UniProt P46598). Description: Surface Plasmon Resonance (SPR) binding, C. albicans Hsp90 NBD. Particulars: biotinylated Hsp90 NBD on streptavidin chip, 25° C., 1:1 binding model. The method, then:
(§1) Surface Plasmon Resonance (SPR) Experiments. SPR experiments were performed on a Biacore S200 instrument at 25° C. Biotinylated Hsp90 Nuclear Binding Domain (NBD) was diluted to 40 μg/mL and immobilized on a streptavidin chip (Sensor Chip SA, GE Healthcare) at a density of 2000-2500 response units (RU) on the biosensor surface.
(§2) Recombinant Hsp90 NBDs were expressed and purified as previously described (Whitesell et al., Nat Commun 10, 402 (2019)) with the following modification; Hsp90 NBD expression constructs were modified to encode a C-terminal AviTag for site-specific on-column biotinylation with a BirA biotin-ligase kit (Avidity LLC; BirA-500). Stock protein solutions in 50% glycerol were stored at −20° C. until dilution into relevant buffers. Binding experiments were done in HBS-P (0.01 M HEPES, pH 7.4, 0.15 M NaCl, 0.005% v/v surfactant P20, GE Healthcare) with 2% DMSO at flow rate of 40 μL/min. Test compounds (dilution series) were injected with a 60 s association time and 600 s dissociation time. Resulting sensorgrams were analyzed with a fit to a 1:1 binding model, using BIA evaluation software.

Assay [2] deals with Hsp90 Nuclear Binding Domain (NBD) (Aspergillus fumigatus, UniProt P40292). The assay can be described thus: Surface Plasmon Resonance (SPR) binding, A. fumigatus Hsp90 NBD. To be noted: biotinylated Hsp90 NBD on streptavidin chip, 25° C., 1:1 binding model; NB undefined. On the procedure: as §1, §2
Hsp90 Nuclear Binding Domain (NBD) (Aspergillus fumigatus, UniProt P40292), sequence (P40292 whole entry, looked up, the tested form may be a part): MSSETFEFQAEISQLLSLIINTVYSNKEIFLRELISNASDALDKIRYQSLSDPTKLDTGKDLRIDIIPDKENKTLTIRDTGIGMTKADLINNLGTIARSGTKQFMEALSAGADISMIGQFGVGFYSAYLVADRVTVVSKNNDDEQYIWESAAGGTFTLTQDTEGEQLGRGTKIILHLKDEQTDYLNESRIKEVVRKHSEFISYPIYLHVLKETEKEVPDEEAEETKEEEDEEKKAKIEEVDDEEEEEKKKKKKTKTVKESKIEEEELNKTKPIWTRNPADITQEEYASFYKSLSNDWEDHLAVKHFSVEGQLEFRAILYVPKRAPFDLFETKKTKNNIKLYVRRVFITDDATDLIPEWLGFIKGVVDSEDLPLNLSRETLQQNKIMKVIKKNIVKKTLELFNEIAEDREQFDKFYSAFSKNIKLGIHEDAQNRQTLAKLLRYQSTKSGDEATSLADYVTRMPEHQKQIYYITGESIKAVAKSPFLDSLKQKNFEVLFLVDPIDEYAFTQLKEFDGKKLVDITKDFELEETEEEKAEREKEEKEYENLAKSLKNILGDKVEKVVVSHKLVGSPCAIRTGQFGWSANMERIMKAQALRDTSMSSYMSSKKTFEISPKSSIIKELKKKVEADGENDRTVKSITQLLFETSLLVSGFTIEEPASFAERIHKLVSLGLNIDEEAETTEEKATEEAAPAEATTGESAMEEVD
For another assay, the system named is CaCl2. Description: Antifungal sensitivity testing (broth microdilution MIC). Format: cell-based. To be noted: Table 4; 96-well broth microdilution. On the procedure: Antifungal Sensitivity Testing. Minimum inhibitory concentrations (MICs) were determined in flat bottom, 96-well plate format using a modified broth microdilution protocol as previously described (Singh et al., PLoS Pathog. 5, e1000532 (2009); LaFayette et al., PLoS Pathog. 6, 79-80 (2010)). Compounds were formulated in dimethyl sulfoxide (DMSO, Sigma-Aldrich Co.); fluconazole was dissolved in sterile ddH2O. Each compound was tested in duplicate in at least two independent experiments. To test for fungicidal activity, cultures from MIC plates were spotted on YPD agar plates using a spotter (Frogger, V&P Scientific, Inc.). Plates were photographed after 24 h of incubation at 30° C.
(Dilution methods test growth across graded concentrations, often in twofold steps.)

Hsp90 Nuclear Binding Domain (NBD) (Candida albicans (strain SC5314 / ATCC MYA-2876) (Yeast), UniProt P46598), sequence (P46598 1-218 limits assumed): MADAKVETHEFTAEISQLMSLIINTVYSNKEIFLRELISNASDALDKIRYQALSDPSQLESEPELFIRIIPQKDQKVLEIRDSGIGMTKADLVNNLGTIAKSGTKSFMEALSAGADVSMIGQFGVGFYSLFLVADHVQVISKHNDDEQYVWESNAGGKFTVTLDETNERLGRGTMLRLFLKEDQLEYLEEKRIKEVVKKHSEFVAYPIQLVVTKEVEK

The Kd is the free concentration of one partner at which half of the binding sites on the other are occupied at equilibrium, for simple one-to-one binding. High values mean lower affinity, low ones higher affinity. By MIC50 is commonly meant the lowest concentration that inhibits either 50% of growth or 50% of the strains tested, depending on the study. A low value points to greater potency. Consider `Nc1nc2sc(C(=O)NC3CCN(C[C@](O)(Cn4cncn4)c4ccc(F)cc4F)CC3)cc2n(-c2ccc3c(c2)N(c2ccccc2)CCO3)c1=O` [Compound I-7, (S)-3-amino-N-(1-(2-(2,4-difluorophenyl)-2-hydroxy-3-(1H-1,2,4-triazol-1-yl)propyl)piperidin-4-yl)-2-oxo-1-(4-phenyl-3,4-dihydro-2H-benzo[b][1,4]oxazin-6-yl)-1,2-dihydrothieno[2,3-b]pyrazine-6-carboxamide], for which the figures for the Kd in assay [1] and in assay [2] were 22.8 nM and 76.4 nM, respectively. In addition, in the assay with CaCl2, the MIC50 was determined as 0.75 µM (≈ 0.555 µg/mL).

`Nc1nc2sc(C(=O)Nc3ccc(N4CCN(CC(O)(Cn5cncn5)c5ccc(F)cc5F)CC4)cc3)cc2n(-c2ccc3c(c2)N(c2ccccc2)CCO3)c1=O` (stereo not shown) [Compound I-8, 3-amino-N-(4-(4-(2-(2,4-difluorophenyl)-2-hydroxy-3-(1H-1,2,4-triazol-1-yl)propyl)piperazin-1-yl)phenyl)-2-oxo-1-(4-phenyl-3,4-dihydro-2H-benzo[b][1,4]oxazin-6-yl)-1,2-dihydrothieno[2,3-b]pyrazine-6-carboxamide] returned an MIC50 against CaCl2 of 0.75 µM (≈ 0.613 µg/mL).

Take `Nc1nc2sc(C(=O)Nc3ccc(CN4CCN(CC(O)(Cn5cncn5)c5ccc(F)cc5F)CC4)cc3)cc2n(-c2ccc3c(c2)N(c2ccccc2)CCO3)c1=O` (stereo not shown) [Compound I-9, 3-amino-N-(4-((4-(2-(2,4-difluorophenyl)-2-hydroxy-3-(1H-1,2,4-triazol-1-yl)propyl)piperazin-1-yl)methyl)phenyl)-2-oxo-1-(4-phenyl-3,4-dihydro-2H-benzo[b][1,4]oxazin-6-yl)-1,2-dihydrothieno[2,3-b]pyrazine-6-carboxamide]: the Kd in assay [1] is 136 nM; in assay [2] it was 3870 nM. For the same compound, the MIC50 against CaCl2 worked out at 10 µM (≈ 8.31 µg/mL).

As to `Nc1nc2sc(C(=O)NC3CCN(CC(O)(Cn4cncn4)c4ccc(F)cc4F)CC3)cc2n(-c2ccc3ccn(-c4ccccc4)c3c2)c1=O` (stereo not shown) [Compound I-13, 3-amino-N-(1-(2-(2,4-difluorophenyl)-2-hydroxy-3-(1H-1,2,4-triazol-1-yl)propyl)piperidin-4-yl)-2-oxo-1-(1-phenyl-1H-indol-6-yl)-1,2-dihydrothieno[2,3-b]pyrazine-6-carboxamide], the Kd in assay [1] turned out to be 50.4 nM; in assay [2], 75.1 nM. The compound also showed an MIC50 against CaCl2 of 0.37 µM (≈ 0.267 µg/mL).

For `Nc1nc2sc(C(=O)N[C@H]3CCN(CC(O)(Cn4cncn4)c4ccc(F)cc4F)C3)cc2n(-c2ccc3c(c2)N(c2ccccc2)CCO3)c1=O` (stereo partly drawn) [Compound I-14, 3-amino-N-((3S)-1-(2-(2,4-difluorophenyl)-2-hydroxy-3-(1H-1,2,4-triazol-1-yl)propyl)pyrrolidin-3-yl)-2-oxo-1-(4-phenyl-3,4-dihydro-2H-benzo[b][1,4]oxazin-6-yl)-1,2-dihydrothieno[2,3-b]pyrazine-6-carboxamide], the dissociation constant Kd was determined as 23.4 nM in assay [1] and 146 nM in assay [2]. The MIC50 against CaCl2 stood at 25 µM (≈ 18.1 µg/mL).

In the case of `Nc1nc2sc(C(=O)NCCN3CCN(CC(O)(Cn4cncn4)c4ccc(F)cc4F)CC3)cc2n(-c2ccc3c(c2)N(c2ccccc2)CCO3)c1=O` (stereo not shown) [Compound I-15, 3-amino-N-(2-(4-(2-(2,4-difluorophenyl)-2-hydroxy-3-(1H-1,2,4-triazol-1-yl)propyl)piperazin-1-yl)ethyl)-2-oxo-1-(4-phenyl-3,4-dihydro-2H-benzo[b][1,4]oxazin-6-yl)-1,2-dihydrothieno[2,3-b]pyrazine-6-carboxamide], the figures for the Kd in assay [1] and in assay [2] were 30.4 nM and 188 nM, respectively. The compound also came in with an MIC50 against CaCl2 of 2.75 µM (≈ 2.11 µg/mL).

Turning to `Nc1nc2sc(C(=O)NC3CCN(CC(O)(Cn4cncn4)c4ccc(F)cc4F)CC3)cc2n(-c2ccc3c(c2)N(c2ccccc2)CCC3)c1=O` (stereo not shown) [Compound I-16, 3-amino-N-(1-(2-(2,4-difluorophenyl)-2-hydroxy-3-(1H-1,2,4-triazol-1-yl)propyl)piperidin-4-yl)-2-oxo-1-(1-phenyl-1,2,3,4-tetrahydroquinolin-7-yl)-1,2-dihydrothieno[2,3-b]pyrazine-6-carboxamide], the results for the dissociation constant Kd in assay [1] and in assay [2] were 16 nM and 140 nM, respectively. In the assay with CaCl2, this compound yielded an MIC50 of 0.6 µM (≈ 0.443 µg/mL).

On to `Nc1nc2scc(C(=O)N[C@H]3CCN(CC(O)(Cn4cncn4)c4ccc(F)cc4F)C3)c2n(-c2ccc3c(c2)N(c2ccccc2)CCO3)c1=O` (stereo partly drawn) [Compound I-17, 3-amino-N-((3S)-1-(2-(2,4-difluorophenyl)-2-hydroxy-3-(1H-1,2,4-triazol-1-yl)propyl)pyrrolidin-3-yl)-2-oxo-1-(4-phenyl-3,4-dihydro-2H-benzo[b][1,4]oxazin-6-yl)-1,2-dihydrothieno[2,3-b]pyrazine-7-carboxamide], for which the values for the Kd in assay [1] and in assay [2] were 2670 nM and 2700 nM, respectively. Further, in the assay on CaCl2, the MIC50 turned out to be 45 µM (≈ 32.7 µg/mL).

`Cc1ccc(-n2c(=O)c(N)nc3sc(C(=O)NC4CCN(C[C@](O)(Cn5cncn5)c5ccc(F)cc5F)CC4)cc32)cc1Oc1ccccc1` [Compound I-25, (S)-3-amino-N-(1-(2-(2,4-difluorophenyl)-2-hydroxy-3-(1H-1,2,4-triazol-1-yl)propyl)piperidin-4-yl)-1-(4-methyl-3-phenoxyphenyl)-2-oxo-1,2-dihydrothieno[2,3-b]pyrazine-6-carboxamide]: the Kd in assay [1] stood at 171 nM; in assay [2], 299 nM. Moreover, the MIC50 with CaCl2 is 0.5 µM (≈ 0.356 µg/mL).

In the case of `Nc1nc2sc(C(=O)NC3CCN(CCC(O)(Cn4cncn4)c4ccc(F)cc4F)CC3)cc2n(-c2ccc3c(c2)N(c2ccccc2)CCO3)c1=O` (stereo not shown) [Compound I-28, 3-amino-N-(1-(3-(2,4-difluorophenyl)-3-hydroxy-4-(1H-1,2,4-triazol-1-yl)butyl)piperidin-4-yl)-2-oxo-1-(4-phenyl-3,4-dihydro-2H-benzo[b][1,4]oxazin-6-yl)-1,2-dihydrothieno[2,3-b]pyrazine-6-carboxamide], the Kd in assay [1] turned out to be 13.3 nM; in assay [2], 159 nM. In the assay on CaCl2, the MIC50 worked out at 6 µM (≈ 4.52 µg/mL).

For `Nc1nc2scc(C(=O)NC3CCN(C[C@](O)(Cn4cncn4)c4ccc(F)cc4F)CC3)c2n(-c2ccc3c(c2)N(c2ccccc2)CCO3)c1=O` [Compound I-35, (S)-3-amino-N-(1-(2-(2,4-difluorophenyl)-2-hydroxy-3-(1H-1,2,4-triazol-1-yl)propyl)piperidin-4-yl)-2-oxo-1-(4-phenyl-3,4-dihydro-2H-benzo[b][1,4]oxazin-6-yl)-1,2-dihydrothieno[2,3-b]pyrazine-7-carboxamide], the figures for the Kd in assay [1] and in assay [2] were 1950 nM and 1840 nM, respectively. Moreover, in the assay on CaCl2, the MIC50 was 25 µM (≈ 18.5 µg/mL).

In the case of `Nc1nc2sc(C(=O)Nc3ccc(COC4CCN(CC(O)(Cn5cncn5)c5ccc(F)cc5F)CC4)cc3)cc2n(-c2ccc3c(c2)N(c2ccccc2)CCO3)c1=O` (stereo not shown) [Compound I-46, 3-amino-N-(4-(((1-(2-(2,4-difluorophenyl)-2-hydroxy-3-(1H-1,2,4-triazol-1-yl)propyl)piperidin-4-yl)oxy)methyl)phenyl)-2-oxo-1-(4-phenyl-3,4-dihydro-2H-benzo[b][1,4]oxazin-6-yl)-1,2-dihydrothieno[2,3-b]pyrazine-6-carboxamide], the MIC50 in the assay with CaCl2 came to 0.85 µM (≈ 0.719 µg/mL).

The compound `Nc1nc2sc(C(=O)NC3CCCN(CC(O)(Cn4cncn4)c4ccc(F)cc4F)CC3)cc2n(-c2ccc3c(c2)N(c2ccccc2)CCO3)c1=O` (stereo not shown) [Compound I-50, 3-amino-N-(1-(2-(2,4-difluorophenyl)-2-hydroxy-3-(1H-1,2,4-triazol-1-yl)propyl)azepan-4-yl)-2-oxo-1-(4-phenyl-3,4-dihydro-2H-benzo[b][1,4]oxazin-6-yl)-1,2-dihydrothieno[2,3-b]pyrazine-6-carboxamide] came in with a Kd in assay [1] of 42.7 nM. The compound also showed an MIC50 against CaCl2 of 3.25 µM (≈ 2.45 µg/mL).

In turn, `Nc1nc2sc(CNC3[C@@H]4CC[C@H]3CN(CC(O)(Cn3cncn3)c3ccc(F)cc3F)C4)cc2n(-c2ccc3c(c2)N(c2ccccc2)CCO3)c1=O` (stereo partly drawn) [Compound I-116, 3-amino-6-((((1R,5S)-3-(2-(2,4-difluorophenyl)-2-hydroxy-3-(1H-1,2,4-triazol-1-yl)propyl)-3-azabicyclo[3.2.1]octan-8-yl)amino)methyl)-1-(4-phenyl-3,4-dihydro-2H-benzo[b][1,4]oxazin-6-yl)thieno[2,3-b]pyrazin-2(1H)-one] had a Kd in assay [1] of 1350 nM. Moreover, the MIC50 with CaCl2 came to 3 µM (≈ 2.26 µg/mL).

As to `CN(Cc1cc2c(nc(N)c(=O)n2-c2ccc3c(c2)N(c2ccccc2)CCO3)s1)C1CCN(CC(O)(Cn2cncn2)c2ccc(F)cc2F)CC1` (stereo not shown) [Compound I-119, 3-amino-6-(((1-(2-(2,4-difluorophenyl)-2-hydroxy-3-(1H-1,2,4-triazol-1-yl)propyl)piperidin-4-yl)(methyl)amino)methyl)-1-(4-phenyl-3,4-dihydro-2H-benzo[b][1,4]oxazin-6-yl)thieno[2,3-b]pyrazin-2(1H)-one], the MIC50 in the assay on CaCl2 was found to be 6.5 µM (≈ 4.81 µg/mL).
